# Measurements published in PubChem BioAssay (NCI).
# Values joined by “and” are separate entries in the source; they are usually repeats but may differ in a detail not shown here. Identical values can stand only once.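 Protocol summary: plate cells (96-well), add compound at 5 concentrations, incubate 48 h, interpolate endpoints linearly. GI50 = concentration required for 50% inhibition of growth. Definition used: TGI = concentration required for complete inhibition of growth.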
# Columns and labels:
# Assay in all cases: NCI tumour cell line growth inhibition, 48 h
# [1] = test system: A549 NSCLC
# [2] = test system: HL-60(TB) leukemia
# [3] = test system: HT29 colon
# [4] = test system: M14 melanoma
# [5] = test system: NCI-H226 lung
# [6] = test system: OVCAR-5 ovarian
# [7] = test system: SF-295 CNS
# [8] = test system: SK-MEL-2 melanoma
# [9] = test system: SK-MEL-5 melanoma
# [10] = test system: SW-620 colon
SMILES,GI50 [1],TGI [1] [µM],TGI [2] [µM],TGI [3] [µM],TGI [4] [µM],TGI [5] [µM],TGI [6] [µM],TGI [7] [µM],TGI [8] [µM],TGI [9] [µM],TGI [10] [µM],GI50 [2] [µM],GI50 [3] [µM],GI50 [4] [µM],GI50 [5] [µM],GI50 [7] [µM],GI50 [8] [µM],GI50 [9] [µM],GI50 [10] [µM]
Cc1nc2c(Br)cc(Br)cc2c(=O)n1-c1ccccc1NC1OC(CO)C(O)C(O)C1O (stereo unspecified),27.8 µM and > 100 µM,> 100,> 100,> 100,> 100,> 100,> 100,> 100,> 100,> 100,> 100,,,,,,,,
O=C1/C(=C/c2ccccc2)Oc2cc(O)ccc21,,> 100,> 100,> 100,> 100,> 100,,> 100,,> 100,> 100,,,,,,,,
Clc1ccc2c(c1)N(CCCN1CCCC13CCCCC3)c1ccccc1S2,,40.2,5.18,15.7,27.3,> 86.5,36.3,29.2,22.1,> 56,40.7,,,,,,,,
COC(=N)C1(C#N)NC(c2ccsc2)C(C#N)(C#N)NC1c1ccsc1 (stereo unspecified),,> 100,> 100,> 100,> 100,> 100,> 100,> 100,> 100,> 100,> 100,,,,,,,,
O=C(CNc1ccccc1C(=O)O)Nn1cnc2ccc(S(=O)(=O)Nc3ccccc3C(=O)O)cc2c1=O,,> 100,> 100,> 100,> 100,> 100,> 100,> 100,> 100,,> 100,,,,,,,,
C=C(NC(=O)C(=C)NC(=O)c1ccc2c(n1)-c1coc(n1)C(=C)NC(=O)C(=C)NC(=O)c1nc(oc1C)C(=C)NC(=O)C(C(C)(C)O)NC(=O)C(=C)NC(=O)c1coc(n1)/C(=C/C)NC(=O)[C@H]([C@@H](C)O)NC(=O)c1csc-2n1)C(N)=O (stereo partly specified),,> 87.5,> 87.5,> 8.75,> 87.5,> 87.5,> 87.5,> 87.5,> 87.5,> 87.5,> 87.5,,,,,,,,
CC(=O)NC1C(OCc2ccccc2)OC(CO)C(O)C1OC(C)C(=O)N[C@@H](C)C(=O)N[C@H](CCC(=O)NCCNCCNc1c2ccccc2nc2cccc([N+](=O)[O-])c12)C(N)=O (stereo partly specified),,1.71,> 80.5,0.668,0.436,0.716,5.19,1.79,0.138,0.0635,> 38.1,,,,,,,,
CC(C)(C)C1CCC2c3c([nH]c4ccccc34)C3C(=O)N(c4ccc([N+](=O)[O-])cc4)C(=O)C3C2C1 (stereo unspecified),,62.1,34.7,19.2,86.2,29,> 100,93.8,29.3,25.6,> 100,,,,,,,,
COc1cc2c(cc1OC)C(=O)N(c1ccc(OCCN3CCCC3)cc1)C2,,> 100,> 100,> 100,> 100,> 100,> 100,> 100,> 100,> 100,> 100,,,,,,,,
COC1CC(C)(NC(=O)C(F)(F)F)C2OC(c3ccccc3)OCC2O1 (stereo unspecified),,> 100,> 100,> 100,> 100,> 100,> 100,> 100,,> 100,> 100,,,,,,,,
Cc1cn(CCCCCCOC(=O)NC(CCCNC(N)=O)C(=O)O)c(=O)[nH]c1=O (stereo unspecified),,> 100,> 100,> 100,> 100,> 100,> 100,> 100,> 100,,> 100,,,,,,,,
CCN1CC2(C)CCC(OC)C34C5CC6CCC(O)(C5C(=O)O6)C(C(O)C23)C14 (stereo unspecified),,> 100,> 100,> 100,> 100,,> 100,> 100,> 100,> 100,> 100,,,,,,,,
CC1=C(C)C(=O)C(C2=CC(=O)c3ccccc3C2=O)=C(C2=CC(=O)c3ccccc3C2=O)C1=O,,> 100,12.3,28.7,> 40.8,49.5,> 100,> 55.2,24.4,,> 33.9,,,,,,,,
CCN(CC)C(=S)SC(C(=O)Nc1nnc(-c2ccc(Cl)cc2)o1)c1ccccc1 (stereo unspecified),,52.1,> 100,16.9,27.6,,26.6,48.2,> 100,19.4,35.9,,,,,,,,
CCC1(O)CC(CCN(Cc2ccccc2)C(=O)OCc2ccccc2)C(OCc2ccccc2)C1O (stereo unspecified),,27.1,,31,42.3,25.3,41.2,28.2,28.7,30.9,> 100,,,,,,,,
CC(C)CCCC(C)[C@H]1CCC(C2C[C@@H](O)[C@@H]3CC(O)[C@@H](O)C[C@]3(CO)C2=O)[C@]1(C)CCO (stereo partly specified),,> 96.2,38.6,36.3,,> 73.8,55.8,40,39.7,18.8,52.7,,,,,,,,
N#Cc1nc(CCc2nc(C#N)c(N)o2)oc1N,,> 10,> 10,> 10,> 10,> 10,> 10,> 10,,> 10,> 10,,,,,,,,
CC(=O)C(=Cc1cn(C)c(=O)n(C)c1=O)C(C)=O,,565,271,278,,293,235,254,255,176,302,,,,,,,,
C=C1CCC[C@@H](C)C(O)[C@@H]2OC(=O)C(=C)[C@@H]2C[C@@H](OC(C)=O)[C@@]2(C)CC[C@@H]1O2 (stereo partly specified),,> 50,,15.3,13.6,16,16.1,38.5,15.8,13.7,16.7,,,,,,,,
COC(=O)c1sc(=O)sc1SCc1cccc(CSc2sc(=O)sc2C(=O)OC)c1,,> 100,,> 100,> 100,> 100,> 100,> 100,> 100,> 100,> 100,,,,,,,,
COC(=O)C1=C(CCCCO[Si](C)(C)C(C)(C)C)NC(=O)N2[C@H](CCOCc3ccccc3)CC[C@@H]12,,> 100,,,> 100,> 100,> 100,> 100,> 100,28.3,,,,,,,,,

SMILES,GI50 [1],TGI [1] [µM],TGI [2] [µM],TGI [3] [µM],TGI [4] [µM],TGI [5] [µM],TGI [6] [µM],TGI [7] [µM],TGI [8] [µM],TGI [9] [µM],TGI [10] [µM],GI50 [2] [µM],GI50 [3] [µM],GI50 [4] [µM],GI50 [5] [µM],GI50 [7] [µM],GI50 [8] [µM],GI50 [9] [µM],GI50 [10] [µM]
O=c1[nH]c(=O)n(COC(CO)CO)cc1-c1ccccc1,,> 100,> 100,> 100,> 100,,> 100,> 100,> 100,> 100,> 100,,,,,,,,
CC(Nc1ccc(Cl)cc1)c1ccncc1 (stereo unspecified),,> 100,,> 100,> 100,> 100,> 100,> 100,> 100,> 100,> 100,,,,,,,,
CC(C)(C)C(=O)Nc1c(C=O)ccc2[nH]cnc12,,> 100,,,> 100,> 100,> 100,> 100,> 100,> 100,> 100,,,,,,,,
COc1ccc(N2C(=O)C3c4[nH]c5c(C)cccc5c4C4CCC(C(C)C)CC4C3C2=O)cc1 (stereo unspecified),,> 100,,13.8,26.8,36.1,29.7,38.3,35.3,> 100,45.7,,,,,,,,
CCOC(=O)NC(=S)N(CC(=O)c1cc(OC)c(OC)c(OC)c1)c1ccc(Cl)cc1,59.6 µM,> 100,> 100,> 100,> 100,> 100,,> 100,> 100,> 100,> 100,65.7,> 100,36.7,> 100,76.7,47.4,43,> 100
N#Cc1c(-c2ccc([N+](=O)[O-])cc2)c(C#N)c(=O)n(NS(=O)(=O)c2ccccc2)c1S,,> 100,,> 100,> 100,> 100,> 100,> 100,60.8,30.4,45.7,,,,,,,,
C=CCC(O[Si](C)(C)C(C)(C)C)c1cc(O[Si](C)(C)C(C)(C)C)ccc1OC (stereo unspecified),,> 100,> 100,> 100,,> 100,> 100,> 100,> 100,> 100,> 100,,,,,,,,
Cc1nc(NC(C)(CO)CO)nc(N/N=C/c2ccc(Cl)cc2)c1C(=O)Nc1ccc(Cl)cc1,,> 100,> 100,> 100,> 100,> 100,> 100,> 100,> 100,,> 100,,,,,,,,
Cc1nnc2n1N=C(c1ccccc1)C(c1ccccc1)S2 (stereo unspecified),,> 100,64.5,> 100,46.5,,> 100,> 100,> 100,> 100,26.8,,,,,,,,
NC(=O)CCC(N=c1c2ccccc2n(O)c2ccccc12)C(=O)O (stereo unspecified),,> 100,> 100,,> 100,> 100,> 100,> 100,> 100,> 100,> 100,,,,,,,,
COC(=O)c1c2c(cc3c1CC1(Cc4cc5c(c(C=O)c4C1)CCC5)C3)CCC2 (stereo unspecified),,> 100,51.5,79.2,75.6,,> 100,> 100,72,37.2,> 100,,,,,,,,
COP(=O)(OC)OCN(C)CC/C=C(\C)CC/C=C(\C)CCC=C(C)C,,40.9,,,28,34.6,39.1,32.5,28.2,25.3,30.4,,,,,,,,
O=C1c2ccccc2-c2nc3ccncc3n21,,> 100,> 100,> 100,,> 100,> 100,> 100,> 100,,> 100,,,,,,,,
CC1OC(OC2C(O[C@H]3CC[C@@]4(C)C(=CC[C@H]5[C@@H]6C[C@@H]7O[C@]8(CC[C@@H](C)CO8)[C@@H](C)[C@@H]7[C@@]6(C)CC[C@@H]54)C3)OC(CO)C(O)C2OC2OC(CO)C(O)C(O)C2O)C(O)C(O)C1O (stereo partly specified),,3.35,,> 100,,,> 20.6,4.41,3.45,4.36,4.39,,,,,,,,
COc1cc2c(/C=C3/C(=O)Nc4ccccc43)c(Cl)n(Cc3ccc(Cl)cc3)c2cc1C,,10.6,2.33,,1.75,1.79,8.84,3.06,17.3,1.62,17.5,,,,,,,,
C=C(Br)CN=CN(C)C,,> 100,> 100,> 100,> 100,> 100,> 100,> 100,> 100,> 100,,,,,,,,,
CCOC(=O)c1c(N)sc2c1C(C(=O)OCC)CCCC2 (stereo unspecified),,> 100,> 100,> 100,> 100,> 100,> 100,,> 100,> 100,> 100,,,,,,,,
N[C@@H](CCC(=O)NC(Cc1ccccc1)C(=O)NCP(=O)(O)O)C(=O)O (stereo partly specified),,> 100,> 100,> 100,,,> 100,> 100,> 100,> 100,> 100,,,,,,,,
Oc1ccc(C(O)C2CCCCN2)cc1O (stereo unspecified),,> 100,,> 100,> 100,> 100,> 100,> 100,> 100,> 100,> 100,,,,,,,,
COc1ccc(-c2ccc(C(=O)C=P(c3ccccc3)(c3ccccc3)c3ccccc3)cc2)cc1,,25.9,6.77,19.4,31.6,27.7,44.8,40.3,,22.4,37.8,,,,,,,,
C/C(=N\Nc1nc2ccccc2s1)c1ccncn1,,> 35,,14,14.4,1.07,> 100,20.5,31.8,7.08,> 100,,,,,,,,
